The term Ki denotes the equilibrium dissociation constant of an inhibitor or competing ligand from its target. A high value points to weaker binding. In general, Kd refers to a measure of binding affinity in units of concentration.

This is an account of results in patent publication US10112968B2, “Inhibitors of protein methyltransferase DOT1L and methods of use thereof” (Epizyme, Inc., priority 2012, dated 2018).

Data set [1] addresses T1, DOT1L (Homo sapiens (Human), UniProt Q8TEK3). Description: DOT1L enzymatic activity radiometric assay (methyl transfer from SAM to chicken erythrocyte nucleosomes). The settings on record: for IC50: read-out: DOT1L IC50; for alpha: global fit.
A further data set concerns MV4-11 xenograft tumors. The experiment in a line: MV4-11 nude rat subcutaneous xenograft model of MLL-rearranged leukemia. Type of data set: in vivo. The method, then: Four groups of 10 (Groups 1, 2, 3, and 4 female RH nu/nu rats (7 weeks old, weighing 120-160 g) bearing MV4-11 xenograft tumors of sizes ranging from 300-600 mm^3 were implanted with a catheter in the femoral vein). The infusion flow rate was set at 1,500 μL/hour/kg and was adjusted to the most recent mean body weight of each treatment group (as an example, the infusion flow rate was 300 μL/hour for a group of rats having a mean body weight of 200 g). Group 1 received vehicle via a 21-day continuous IV infusion. Group 2 received 21-day continuous IV infusion of the test substance at 35 mg/kg/day. Group 3 received a daily 8-hour continuous IV infusion of the test substance at 67 mg/kg/day for 21 consecutive days. Between two IV infusions of the test substance, the rats were kept under IV infusion with NaCl 0.9% solution. Group 4 received a 21-day continuous IV infusion of the test substance at 70 mg/kg/day. Syringes used for the IV infusion were replaced every day.
The rats were terminated when the subcutaneous tumor reached a maximum volume of 9,000 mm^3 or at a maximum of 55 days after tumor cells injection.

Data set [2] can be described thus: Pharmacokinetic half-life in systemic circulation, rats. Type of data set: in vivo.
Data set [3] in a line: Pharmacokinetic half-life in systemic circulation, dogs. Type of data set: in vivo.
The test system of a further data set is H3K79 methylation. Description: H3K79 methylation in treated leukemia cells. Type of data set: cell-based. The following applies: treatment of leukemia cells.
In data set [4] the test system is MLL-rearranged leukemia cells. The experiment in a line: Cell killing in MLL-rearranged leukemia cells. Type of data set: cell-based.
For data set [5], the system named is leukemia cell lines without the chromosomal rearrangement of the MLL gene. Description: Antiproliferative effect on leukemia cell lines without MLL rearrangement. Type of data set: cell-based.
Data set [6] relates to other histone methyl marks. Description: Effect on other histone methyl marks in cells. Type of data set: cell-based.
The subject of another data set is MV4-11 cells. The experiment in a line: Cell proliferation assay (Guava Viacount, 14 days). Type of data set: cell-based. The following applies: Homo sapiens, 336 h, day 14, read-out: Cellular IC50 Proliferation.
The next data set has as its system MLL-rearranged leukemia. The experiment in a line: Aggressive, disseminated mouse model of MLL-rearranged leukemia. Type of data set: in vivo. The settings on record: as previously described.
A further data set deals with H3K79me2 in MV4-11 cells. The experiment in a line: H3K79me2 quantitative ELISA. The settings on record: Homo sapiens, MV4-11, 96 h, read-out: Cellular IC50 H3K79 Methylation. On the technique in general: An ELISA detects its analyte on a solid surface through an enzyme-linked reagent.
In data set [7] the test system is HOXA9 mRNA in MV4-11 cells. The experiment in a line: Quantitative real-time PCR analysis of HOXA9 message. The following applies: Homo sapiens, MV4-11, 144 h, read-out: Cellular IC50 HOXA9 mRNA. On the technique in general: In qPCR the cycle at which signal appears reflects the starting amount.
Data set [8] concerns the target T1, DOT1L. The experiment in a line: Ligand association and dissociation rate constants by surface plasmon resonance (SPR). Type of data set: binding. The settings on record: Kd calculated as koff/kon.

Entries after “also recorded” stand apart in the source; their conditions may differ.

T1 sequence (Q8TEK3 whole entry, the tested form may be a part): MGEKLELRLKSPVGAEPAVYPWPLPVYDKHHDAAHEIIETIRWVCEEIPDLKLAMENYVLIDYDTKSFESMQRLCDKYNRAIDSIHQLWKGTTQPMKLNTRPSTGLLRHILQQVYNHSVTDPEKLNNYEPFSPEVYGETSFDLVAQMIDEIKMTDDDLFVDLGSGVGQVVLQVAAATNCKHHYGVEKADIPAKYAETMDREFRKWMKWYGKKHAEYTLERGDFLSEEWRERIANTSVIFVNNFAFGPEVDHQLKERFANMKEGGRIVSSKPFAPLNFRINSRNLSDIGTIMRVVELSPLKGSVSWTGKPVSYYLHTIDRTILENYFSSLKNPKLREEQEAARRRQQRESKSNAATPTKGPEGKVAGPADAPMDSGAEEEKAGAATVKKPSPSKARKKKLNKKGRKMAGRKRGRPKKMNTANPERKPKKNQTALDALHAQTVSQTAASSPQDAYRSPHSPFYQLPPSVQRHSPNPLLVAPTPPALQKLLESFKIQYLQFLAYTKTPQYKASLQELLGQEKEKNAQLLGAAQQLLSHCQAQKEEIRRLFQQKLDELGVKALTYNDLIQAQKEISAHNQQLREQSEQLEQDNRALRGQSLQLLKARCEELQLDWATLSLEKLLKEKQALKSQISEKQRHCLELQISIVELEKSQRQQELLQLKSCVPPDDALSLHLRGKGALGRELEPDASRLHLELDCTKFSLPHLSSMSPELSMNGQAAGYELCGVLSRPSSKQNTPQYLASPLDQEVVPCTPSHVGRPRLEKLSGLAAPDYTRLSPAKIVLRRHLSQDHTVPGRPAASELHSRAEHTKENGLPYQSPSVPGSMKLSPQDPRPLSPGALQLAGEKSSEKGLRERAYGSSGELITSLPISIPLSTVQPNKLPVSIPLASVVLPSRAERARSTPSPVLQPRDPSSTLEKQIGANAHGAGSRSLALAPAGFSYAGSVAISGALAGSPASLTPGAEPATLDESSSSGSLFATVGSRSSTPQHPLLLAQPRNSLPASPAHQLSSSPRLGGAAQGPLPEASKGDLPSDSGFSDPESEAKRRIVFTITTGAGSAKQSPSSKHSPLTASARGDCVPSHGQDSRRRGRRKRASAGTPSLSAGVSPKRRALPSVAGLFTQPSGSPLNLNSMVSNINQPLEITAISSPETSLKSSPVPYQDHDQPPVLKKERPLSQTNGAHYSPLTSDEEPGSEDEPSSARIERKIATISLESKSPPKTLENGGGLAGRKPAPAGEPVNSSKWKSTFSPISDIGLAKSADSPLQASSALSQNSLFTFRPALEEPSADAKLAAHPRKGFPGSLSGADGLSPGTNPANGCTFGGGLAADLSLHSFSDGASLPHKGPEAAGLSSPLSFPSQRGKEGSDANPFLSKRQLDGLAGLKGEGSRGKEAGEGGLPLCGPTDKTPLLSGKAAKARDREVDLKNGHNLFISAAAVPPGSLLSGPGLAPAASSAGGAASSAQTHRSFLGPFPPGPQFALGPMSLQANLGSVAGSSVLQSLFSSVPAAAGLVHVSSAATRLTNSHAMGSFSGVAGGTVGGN

On DOT1L [1], `CN(CCNC(=O)OCC1c2ccccc2-c2ccccc21)C[C@H]1OC(n2cnc3c(N)ncnc32)[C@H](O)[C@@H]1O` (some centres unmarked) [Compound C64] returned a Ki of 20 µM.
As to `CC(C)N(C[C@H]1O[C@@H](n2cnc3c(N)ncnc32)[C@H](O)[C@@H]1O)[C@H]1C[C@@H](CCc2nc3cc(C(C)(C)C)ccc3[nH]2)C1` [Compound A2, (2R,3R,4S,5R)-2-(6-amino-9H-purin-9-yl)-5-((((1r,3S)-3-(2-(5-(tert-butyl)-1H-benzo[d]imidazol-2-yl)ethyl)cyclobutyl)(isopropyl)amino)methyl)tetrahydrofuran-3,4-diol], the anti-tumor activity entry with MV4-11 xenograft tumors (continuous intravenous infusion for 21 days, FIG. 1) is “dose-dependent anti-tumor activity; also recorded: complete and sustained tumor regression”. Further, in the data set with MV4-11 xenograft tumors (highest dose (70 mg/kg/day)), the “time with no regrowth after the cessation of treatment” value is “up to 32 days”. In addition, the tumor regressions entry in the data set with MV4-11 xenograft tumors (highest dose (70 mg/kg/day), 21-day continuous IV infusion) is given as “complete tumor regressions”. Moreover, the “weight loss or toxicity during efficacy study” value in the data set with MV4-11 xenograft tumors (rats) is “No significant weight loss or obvious toxicity”. The “effective pharmacokinetic half-life in systemic circulation” value in data set [2] is 15 min; in data set [3] it was 1.5 h. For the same compound, in the data set with H3K79 methylation, the H3K79 methylation entry is “concentration- and time-dependent diminution”. The cell killing result in [4] is reported as “selective, apoptotic cell killing”. For the same compound, the “impact on non-rearranged cells” value in data set [5] was “minimal impact”. Besides, the “effect on other histone methyl marks / methylation status of other histone sites” value in data set [6] is given as “without effect”.
Consider `CC(C)N(C[C@H]1O[C@@H](n2cnc3c(N)ncnc32)[C@H](O)[C@@H]1O)[C@H]1C[C@@H](CCc2nc3cc(Cl)c(C(F)(F)F)cc3[nH]2)C1` [Compound A5, (2R,3R,4S,5R)-2-(6-amino-9H-purin-9-yl)-5-((((1r,3S)-3-(2-(5-chloro-6-(trifluoromethyl)-1H-benzo[d]imidazol-2-yl)ethyl)cyclobutyl)(isopropyl)amino)methyl)tetrahydrofuran-3,4-diol], for which the IC50 at DOT1L [1] turned out to be 0.59 nM.
In the case of `CC(C)N(CCCNC(=O)Nc1ccc(C(C)(C)C)cc1)C[C@H]1OC(n2ccc3c(N)ncnc32)C(O)[C@@H]1O` (some centres unmarked) [Compound D16], the values for the IC50 (in the data set on MV4-11 cells; in the data set with H3K79me2 in MV4-11 cells; in data set [7]) were 146 ± 72 nM, 0.005 ± 0.003 µM and 830 ± 170 nM, respectively. Further, the survival result in the data set on MLL-rearranged leukemia is on record as “statistically significant survival advantage”. Further, the “inhibition modality with respect to SAM” value on DOT1L [1] is “competitive inhibitor”. The “inhibition modality with respect to nucleosome” value against DOT1L [1] is listed as “noncompetitive inhibitor”. Moreover, the alpha at DOT1L [1] (FIG. 2A, varied SAM concentration) was found to be 10±6; on DOT1L [1] (FIG. 2B, varied oligonucleosome concentration), 0.5±0.2. For the same compound, the ΔΔGbinding on DOT1L [1] (between C118 and D16, at 25° C.) lay within 2.4 to 2.9 kcal/mol.
Regarding `CC(C)N(C[C@H]1O[C@@H](n2ccc3c(N)ncnc32)[C@H](O)[C@@H]1O)[C@H]1C[C@@H](CCc2nc3cc(OC(F)(F)F)ccc3[nH]2)C1` [Compound A87, (2R,3R,4S,5R)-2-(4-amino-7H-pyrrolo[2,3-d]pyrimidin-7-yl)-5-((isopropyl((1r,3S)-3-(2-(5-(trifluoromethoxy)-1H-benzo[d]imidazol-2-yl)ethyl)cyclobutyl)amino)methyl)tetrahydrofuran-3,4-diol], the IC50 at DOT1L [1] was found to be 0.8 nM.
On the same count and under the same terms, the result for `CC(C)N(C[C@H]1O[C@@H](n2ccc3c(N)ncnc32)[C@H](O)[C@@H]1O)[C@H]1C[C@H](CCc2nc3cc(C(C)(C)C)ccc3[nH]2)C1` [Compound A75, (2R,3R,4S,5R)-2-(4-amino-7H-pyrrolo[2,3-d]pyrimidin-7-yl)-5-((((1s,3R)-3-(2-(5-(tert-butyl)-1H-benzo[d]imidazol-2-yl)ethyl)cyclobutyl)(isopropyl)amino)methyl)tetrahydrofuran-3,4-diol] reads 0.59 nM; that for `CN(C[C@H]1O[C@@H](n2ccc3c(N)ncnc32)[C@H](O)[C@@H]1O)[C@H]1C[C@@H](CCc2nc3cc(C(C)(C)C)ccc3[nH]2)C1` [Compound A86, (2R,3R,4S,5R)-2-(4-amino-7H-pyrrolo[2,3-d]pyrimidin-7-yl)-5-((((1r,3S)-3-(2-(5-(tert-butyl)-1H-benzo[d]imidazol-2-yl)ethyl)cyclobutyl)(methyl)amino)methyl)tetrahydrofuran-3,4-diol], 0.62 nM.
`CN(CCNC(=O)Nc1ccc(C(C)(C)C)cc1)C[C@H]1O[C@@H](n2cnc3c(N)ncnc32)[C@H](O)[C@@H]1O` [Compound C94]: on DOT1L [8], the Kd is 167 ± 100 nM. Besides, the IC50 was over 50000 nM in the data set on MV4-11 cells, 28 ± 25 µM in the data set on H3K79me2 in MV4-11 cells and over 50000 nM in [7]. At DOT1L [1], this compound yielded a Ki of 0.845 µM.
